# Measurements taken from US7888380B2, “1,2,4-Triazolylaminoaryl (heteroaryl) sulfonamide derivatives” (Janssen Pharmaceutica, N.V., priority 2004, dated 2011).
# Tests used:
# CDK1:Cyclin-B = target: T1, CDK1:Cyclin-B (Homo sapiens, UniProt P06493); test: CDK1 Screening Assay (33P-ATP FlashPlate); assay type: biochemical; details: 10 μM ATP; >10 or >100 = less than 50% inhibition at highest concentration tested
# T1 construct: purchased New England Biolabs, Beverly, Mass; 6020; host or cells: insect cells
# Procedure: A kinase reaction mixture was prepared containing 50 mM Tris-HCl pH=8, 10 mM MgCl2, 0.1 mM Na3PO4, 1 mM DTT, 10 μM ATP, 0.025 μM biotinylated histone-H1 peptide substrate and 0.2 μCuries per well ^33P-γ-ATP (2000-3000 Ci/mmol). 70 μL of the kinase reaction mixture was dispensed into each well of a streptavidin coated FlashPlate™ (Cat. # SMP103, NEN, Boston, Mass.). Then 1 μL of test compound stock in 100% DMSO was added to the wells resulting in a final concentration of 1% DMSO in the reaction with a 100 μl final reaction volume.
# Next, CDK1:Cyclin-B protein was diluted in 50 mM Tris-HCl pH=8.0, 0.1% BSA at a concentration of 1 ng per μL and 30 μL (30 ng enzyme per test well) was added to each well to initiate the reaction. The reaction was incubated for one hour at 30° C. At the end of the 1 h incubation, the reaction was terminated by aspirating the mixture from the plate and washing the wells twice with PBS containing 100 mM EDTA. The histone-H1 biotinylated peptide substrate became immobilized on the Flashplate™ and the incorporation of ^33P-γ-ATP was measured by reading the plate on a scintillation counter. Inhibition of the enzymatic activity of CDK1 was measured by observing a reduced amount of ^33P-γ-ATP incorporated into the immobilized peptide.
# (§1) VEGF-R (vascular endothelial growth factor receptor-2) is a fusion protein containing a polyhistidine tag at the N-terminus followed by amino acids 786-1343 of the rat VEGF-R2 kinase domain (GenBank Accession #U93306). CDK1 (cyclin dependent kinase 1) was isolated from insect cells expressing both the human CDK1 catalytic subunit and its positive regulatory subunit cyclin B (New England Biolabs, Beverly, Mass., Cat. # 6020). CDK2 in complex with cyclin A is commercially available (Upstate Biotech, Lake Placid, N.Y.). The HER2 (human epidermal growth factor receptor-2) construct contains a polyhistidine tag at the N-terminus followed by 24 additional amino acids and begins at amino acid 676 followed by the remainder of the HER2 cytoplasmic domain.
# VEGF-R2 kinase = target: T2, VEGF-R2 kinase (Rattus norvegicus, UniProt O08775); test: VEGF-R2 Kinase Screening Assay; assay type: biochemical; details: 10 μM ATP; rat VEGF-R2 kinase domain; read-out: IC50 (μM) VEGFR
# T2 construct: 6xHis (polyhistidine) (N)
# Procedure: A kinase reaction mixture was prepared containing 50 mM Tris-HCl pH=8, 10 mM MgCl2, 0.1 mM Na3PO4, 1 mM DTT, 10 μM ATP, 0.025 μM biotinylated peptide substrate and 0.8 μCuries per well ^33P-γ-ATP (2000-3000 Ci/mmol). 70 μL of the kinase reaction mixture was dispensed into each well of a streptavidin coated FlashPlate™ (Cat. # SMP103, NEN, Boston, Mass.). Then 1 μL of test compound stock in 100% DMSO was added to the wells resulting in a final concentration of 1% DMSO in the reaction with a 100 μL final reaction volume. Next, soluble rat tyrosine kinase containing an N-terminal 6×HIS tag was diluted in 50 mM Tris-HCl pH=8.0, 0.1% BSA at a concentration of 5 ng per μL and 30 μL (150 ng enzyme per test well) was added to each well to initiate the reaction. The reaction was incubated for one hour at 30° C. At the end of the 1 h incubation, the reaction was terminated by aspirating the reaction mixture from the plate and washing the wells twice with PBS containing 100 mM EDTA. The PLC1 biotinylated peptide substrate became immobilized on the Flashplate™ and the incorporation of ^33P-γ-ATP was measured by reading the plate on a scintillation counter. Inhibition of the enzymatic activity of the VEGF-R2 kinase was measured by observing a reduced amount of ^33P-γ-ATP incorporated into the immobilized peptide.
# as §1
# HER2 = target: T3, HER2 (Homo sapiens, UniProt P04626); test: HER2 Kinase Screening Assay; assay type: biochemical; details: 10 μM ATP; >10 or >100 = less than 50% inhibition at highest concentration tested
# T3 construct: polyhistidine (N)
# Procedure: The HER2 kinase assay was carried out as described above for the VEGF-R kinase assay except that the enzyme was replaced with a human epidermal growth factor receptor-2 (HER2) construct contains a polyhistidine tag at the N-terminus followed by 24 additional amino acids and begins at amino acid 676 (Accession #M11730) followed by the remainder of the HER2 cytoplasmic domain.
# as §1
# [1] = tested on: HeLa cervical adenocarcinoma; test: Inhibition of cell proliferation (14C-thymidine incorporation), HeLa; assay type: cell-based; details: Homo sapiens
# Procedure: (§2) The ability of a test compound to inhibit the proliferation of cell growth was determined by measuring incorporation of ^14C-labelled thymidine into newly synthesized DNA within the cells. This method was used on cell lines derived from carcinomas originating from several tissues such as HeLa cervical adenocarcinoma (American Type Culture Collection (ATCC), Virginia, Cat. #CCL-2), A375 malignant melanoma (ATCC CRL-1619), and HCT-116 colon carcinoma (CCL-247). In this way the effect of a compound on cell growth of cells with many different phenotypes can be determined. Cells were trypsinized and counted and 3000-8000 cells were added to each well of a 96-well CytoStar tissue culture treated scintillating microplate (Amersham #RPNQ0160) in complete medium in a volume of 100 μl. Cells were incubated for 24 hours in complete medium at 37° C. in an atmosphere containing 5% CO2.
# (§3) Next, 1 μl of test compound in 100% DMSO was added to the wells of the plate. DMSO only was added to control wells. Cells were incubated for 24 more hours in complete medium at 37° C. in an atmosphere containing 5% CO2. Methyl ^14C-thymidine 56 mCi/mmol (NEN #NEC568 or Amersham #CFA532) was diluted in complete medium and 0.2 uCi/well was added to each well of the CytoStar plate in a volume of 20 ul. The plate was incubated for 24 hours at 37° C. plus 5% CO2 in drug plus ^14C-thymidine. The contents of the plate were discarded into a ^14C radioactive waste container by inverting the plate and the plate was washed twice with 200 μl PBS.
# (§4) 200 μl of PBS was added to each well. The top of the plate was sealed with a transparent plate sealer and a white plate backing sealer (Packard #6005199) was applied to the bottom of the plate. The degree of methyl ^14C-thymidine incorporation was quantified on a Packard Top Count.
# HCT-116 colon carcinoma = test: Inhibition of cell proliferation (14C-thymidine incorporation), HCT116; assay type: cell-based, human; details: Homo sapiens, HCT-116
# Procedure: as §2, §3, §4
# A375 malignant melanoma = test: Inhibition of cell proliferation (14C-thymidine incorporation), A375; assay type: cell-based, human; details: Homo sapiens, A-375
# Procedure: as §2, §3, §4
# T2 sequence (O08775 786-1343): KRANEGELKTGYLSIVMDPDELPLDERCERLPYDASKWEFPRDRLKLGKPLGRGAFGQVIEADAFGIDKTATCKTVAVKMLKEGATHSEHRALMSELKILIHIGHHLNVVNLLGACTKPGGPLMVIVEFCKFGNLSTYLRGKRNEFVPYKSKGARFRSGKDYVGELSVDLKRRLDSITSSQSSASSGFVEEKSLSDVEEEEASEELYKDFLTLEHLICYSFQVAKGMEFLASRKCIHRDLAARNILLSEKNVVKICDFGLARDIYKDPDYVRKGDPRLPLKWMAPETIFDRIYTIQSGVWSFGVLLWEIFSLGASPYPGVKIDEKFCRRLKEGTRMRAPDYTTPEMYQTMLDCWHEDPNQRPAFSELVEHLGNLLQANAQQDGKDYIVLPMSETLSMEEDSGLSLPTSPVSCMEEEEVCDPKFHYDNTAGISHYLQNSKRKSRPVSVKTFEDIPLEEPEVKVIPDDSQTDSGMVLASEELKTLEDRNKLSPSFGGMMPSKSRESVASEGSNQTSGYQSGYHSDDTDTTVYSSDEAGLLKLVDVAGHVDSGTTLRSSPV
# T1 sequence (P06493 whole entry): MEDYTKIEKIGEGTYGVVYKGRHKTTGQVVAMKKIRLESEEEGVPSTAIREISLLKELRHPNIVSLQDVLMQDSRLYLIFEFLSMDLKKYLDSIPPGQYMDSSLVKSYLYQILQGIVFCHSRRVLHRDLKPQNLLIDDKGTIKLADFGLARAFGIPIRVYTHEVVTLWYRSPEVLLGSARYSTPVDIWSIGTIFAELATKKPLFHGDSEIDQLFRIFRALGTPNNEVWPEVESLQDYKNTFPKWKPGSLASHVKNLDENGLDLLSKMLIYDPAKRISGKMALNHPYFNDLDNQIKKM
# T1 sequence (P14635 whole entry partner): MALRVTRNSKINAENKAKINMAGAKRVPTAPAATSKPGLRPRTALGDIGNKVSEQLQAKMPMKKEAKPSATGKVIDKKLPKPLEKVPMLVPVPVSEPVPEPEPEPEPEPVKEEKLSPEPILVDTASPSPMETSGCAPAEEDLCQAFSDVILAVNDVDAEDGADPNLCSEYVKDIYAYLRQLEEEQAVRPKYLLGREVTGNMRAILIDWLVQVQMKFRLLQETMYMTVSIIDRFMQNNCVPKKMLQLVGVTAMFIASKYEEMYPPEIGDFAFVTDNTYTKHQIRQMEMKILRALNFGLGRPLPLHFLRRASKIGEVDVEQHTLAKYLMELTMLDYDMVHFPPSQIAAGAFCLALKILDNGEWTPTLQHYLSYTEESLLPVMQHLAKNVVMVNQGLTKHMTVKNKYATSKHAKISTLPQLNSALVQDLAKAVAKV
# T3 sequence (P04626 676-1255 limits assumed): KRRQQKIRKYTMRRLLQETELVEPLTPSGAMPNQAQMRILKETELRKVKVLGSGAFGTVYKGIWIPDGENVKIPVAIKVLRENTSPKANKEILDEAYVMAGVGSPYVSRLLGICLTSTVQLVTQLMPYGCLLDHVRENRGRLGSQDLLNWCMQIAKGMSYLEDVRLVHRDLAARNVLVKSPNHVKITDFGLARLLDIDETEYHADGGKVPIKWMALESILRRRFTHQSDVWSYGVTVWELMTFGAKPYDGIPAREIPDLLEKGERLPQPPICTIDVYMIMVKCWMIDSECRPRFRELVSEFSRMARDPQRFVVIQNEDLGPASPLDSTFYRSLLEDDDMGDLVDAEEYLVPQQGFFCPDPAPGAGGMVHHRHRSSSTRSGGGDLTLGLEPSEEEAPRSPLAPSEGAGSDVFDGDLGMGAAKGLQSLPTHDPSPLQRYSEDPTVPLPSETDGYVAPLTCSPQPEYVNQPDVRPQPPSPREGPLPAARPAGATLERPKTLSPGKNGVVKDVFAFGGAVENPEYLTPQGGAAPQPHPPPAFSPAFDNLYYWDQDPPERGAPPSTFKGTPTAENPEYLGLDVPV
SMILES,IC50 (CDK1:Cyclin-B) [µM],IC50 (VEGF-R2 kinase) [µM],IC50 (HER2) [µM],IC50 [1] [µM],IC50 (HCT-116 colon carcinoma) [µM],IC50 (A375 malignant melanoma) [µM]
"Nc1nc(Nc2ccc(S(=O)(=O)NC(=O)CCCC(=O)O)cc2)nn1C(=O)c1c(F)cccc1F [Compound 11, 5-{4-[5-amino-1-(2,6-difluoro-benzoyl)-1H-[1,2,4]triazol-3-ylamino]-benzenesulfonylamino}-5-oxo-pentanoic acid]",12.4,2.77,> 100,> 100,> 100,> 100
"CN1CCN(CCC(=O)NS(=O)(=O)c2ccc(Nc3nc(N)n(C(=O)c4c(F)cccc4F)n3)cc2)CC1 [Compound 5, 4-[5-amino-1-(2,6-difluoro-benzoyl)-1H-[1,2,4]triazol-3-ylamino]-N-[3-(4-methyl-piperazin-1-yl)-propionyl]-benzenesulfonamide]",1.34,1.88,≥ 10,> 100,> 10,> 100
"CCOC(=O)CCC(=O)NS(=O)(=O)c1ccc(Nc2nc(N)n(C(=O)c3c(F)cccc3F)n2)cc1 [Compound 8, 4-{4-[5-amino-1-(2,6-difluoro-benzoyl)-1H-[1,2,4]triazol-3-ylamino]-benzenesulfonylamino}-4-oxo-butyric acid ethyl ester]",0.47,0.47,1.23,60.2,40.1,> 10
"C[C@@H](N)C(=O)NS(=O)(=O)c1ccc(Nc2nc(N)n(C(=O)c3c(F)cccc3F)n2)cc1 [Compound 14, 4-[5-amino-1-(2,6-difluoro-benzoyl)-1H-[1,2,4]triazol-3-ylamino]-N—((R)-2-amino-propionyl)-benzenesulfonamide]",0.74,0.89,≥ 10,1.96,38.5,71.1

# Further molecules by falling IC50 (CDK1:Cyclin-B), results first:
IC50 (CDK1:Cyclin-B) [µM],IC50 (VEGF-R2 kinase) [µM],IC50 (HER2) [µM],IC50 [1] [µM],IC50 (HCT-116 colon carcinoma) [µM],IC50 (A375 malignant melanoma) [µM],SMILES
2.55,1.76,> 100,> 100,> 100,> 100,"COCCOCCOCC(=O)Nc1nc(Nc2ccc(S(N)(=O)=O)cc2)nn1C(=O)c1c(F)cccc1F [Compound 10, N-[2-(2,6-difluoro-benzoyl)-5-(4-sulfamoyl-phenylamino)-2H-[1,2,4]triazol-3-yl]-2-[2-(2-methoxy-ethoxy)-ethoxy]-acetamide]"
2.13,1.22,≥ 10,> 10,> 10,> 100,"CN(C)CC(=O)NS(=O)(=O)c1ccc(Nc2nc(N)n(C(=O)c3c(F)cccc3F)n2)cc1 [Compound 6, 4-[5-amino-1-(2,6-difluoro-benzoyl)-1H-[1,2,4]triazol-3-ylamino]-N-(2-dimethylamino-acetyl)-benzenesulfonamide]"
1.93,1.54,5,81.2,> 100,> 100,"CCCCC(=O)NS(=O)(=O)c1ccc(Nc2nc(N)n(C(=O)c3c(F)cccc3F)n2)cc1 [Compound 18, 4-[5-amino-1-(2,6-difluoro-benzoyl)-1H-[1,2,4]triazol-3-ylamino]-N-pentanoyl-benzenesulfonamide]"
1.36,2.03,≥ 10,1.04,20.8,12.1,"C[C@H](N)C(=O)N[C@@H](C)C(=O)NS(=O)(=O)c1ccc(Nc2nc(N)n(C(=O)c3c(F)cccc3F)n2)cc1.O=C(O)C(F)(F)F.O=C(O)C(F)(F)F.O=C(O)C(F)(F)F [Compound 15, (S)-2-amino-N—((S)-2-{4-[5-amino-1-(2,6-difluoro-benzoyl)-1H-[1,2,4]triazol-3-ylamino]-benzenesulfonylamino}-1-methyl-2-oxo-ethyl)-propionamide 3 TFA salt]"
